Values of other authors in paper PMC5306496 (British Journal of Clinical Pharmacology, 2016).
Like-named read-outs stand apart in the source and are kept apart here.

How the values were obtained:
[1] = not given; remark: listed apart in the source
[2] = CVVHDF
[3] = not given; remark: listed apart in the source
[4] = patients with SAB/RIE and CrCl > 30 ml min^−1, 6 mg kg^−1 once daily

- CL (base model without CRRT patients, not-on-dialysis): 11.4 mL/h/kg
- CL (base model without CRRT patients, not-on-dialysis, at 70 kg): 0.80 L/h
- CL (base model, CAPD): 2.98 mL/h/kg
- CL (base model, HD): 3.43 mL/h/kg
- efficacy exposure reference AUC0–24h [1, 4]: 465 to 761 µg·h/mL
- efficacy exposure reference C max [1, 4]: 66 to 112 µg/mL
- C max ([2]; 4 mg kg^−1/day, n = 4, range): 24.7 to 69.7 µg/mL
- C min ([2]; 4 mg kg^−1/day, n = 4, range): 2.7 to 11.9 µg/mL
- C max ([2]; 5 mg kg^−1/day, n = 2, range): 34.7 to 35.7 µg/mL
- C min ([2]; 5 mg kg^−1/day, n = 2, range): 3 to 3.7 µg/mL
- C max ([2]; 6 mg kg^−1/day, n = 2, range): 20.5 to 61.7 µg/mL
- C min ([2]; 6 mg kg^−1/day, n = 2, range): 1.5 to 15.9 µg/mL
- clearance by CRRT as share of the total drug clearance [3]: 40–50%
- PK linearity ([3]; once‐daily doses of 6–12 mg kg^−1): linear PK profile
- amount of drug cleared by the kidneys ([3]; patients with normal renal function): 34–54%
Substance: daptomycin
- C min that may be associated with elevated creatine phosphokinase (CPK) ([1]; additional safety threshold): > 24.3 µg/mL
- safety threshold C max ([1]; healthy volunteers with normal renal function, 12 mg kg^−1 Q24 h): 197 µg/mL
